Data on 2 compounds can be found in patent publication US11439624B2, “Promoting sleep using AT1 receptor blockers” (UNIVERSITY OF PITTSBURGH—OF THE COMMONWEALTH SYSTEM OF …, priority 2012, dated 2022).

The subject of data set [1] is rats in the stress-induced insomnia model. As to the kind of experiment: stress-induced insomnia model in rats (cage exchange; EEG and EMG recording). In kind it is in vivo, rat. The following applies: for average of REM sleep / average of nREM sleep / average of wakefulness along the entire experiment: aprox. 6 hours after cage exchange and drug injection; for average of REM sleep: vehicle 2%; for average of nREM sleep: vehicle 45%; for average of wakefulness along the entire experiment: vehicle 52%; for REM sleep (range depending on the hour): vehicle 0-4%; for sleep latency: stressed (cage exchanged) rats, i.p. just prior to transfer to soiled cage, candesartan 1 or 5 mg/kg, azilsartan 0.5 mg/kg, vehicle 68±10 minutes; for abnormal wave components in the EEG (power spectrum analysis): treated rats in the insomnia model. Here is the method: Rats in the stress-induced insomnia model (25) were treated with candesartan intraperitoneally (i.p.; 1 mg/kg or 5 mg/kg). In the model, insomnia is induced by transferring male rats at the peak of their normal sleep cycle into a soiled cage previously occupied during one week by another male rat. This simple procedure induces a psychological or social stress response in the rats, which are very territorial animals. The sequence of sleep disturbances in cage exchanged rats is similar to that observed in humans with primary insomnia. In rats, there is an initial delay in sleep onset and increased wakefulness that resemble the difficulties falling asleep at the beginning of the night, or initial insomnia, observed in humans after a stressful day. Eventually, insomniacs fall asleep because of the sleep pressure, as rats do. But later, as the night progresses, they usually experience insomnia characterized by decreased nREM sleep, frequent awakenings, and poor quality sleep, similar to what we observed in the stressed rats. Candesartan was injected i.p. just prior to transferring the rats (n=7 for the 1 mg/kg treatment and n=4 for the 5 mg/kg treatment) to the soiled cage. EEG and EMG activity were recorded continuously to determine the behavioral state (wake, nREM or REM sleep) along several hours. Control rats (n=6) were injected with vehicle and also placed in a soiled cage and recorded. […] REM sleep is increased to 6-12% (depending on the hour) compared with vehicle treated rats (0-4%). In an additional study, Azilsartan was tested using the same stress-induced insomnia model in rats as was used in Example 1. Azilsartan, which mainly acts as an inverse agonist of AT1 receptors, has been reported to have a potent effect in the treatment of hypertension at a single daily dose compared to twice-a-day doses commonly used for other AT1 receptor blockers. For this reason, we used a lower dose of azilsartan (0.5 mg/kg) than the dose used for candesartan. Azilsartan was injected i.p. just prior to transferring the rats (n=4) to the soiled cage. EEG and EMG activity were recorded continuously to determine the behavioral state (wake, nREM or REM sleep) along several hours, as explained above.

The subject of data set [2] is humans treated for hypertension. The following applies: cited from earlier work.
[3] abbreviates: candesartan 1 or 5 mg/kg i.p., azilsartan 0.5 mg/kg i.p.

SMILES strings stand for the structures.

In the case of `CCOc1nc2cccc(C(=O)O)c2n1Cc1ccc(-c2ccccc2-c2nnn[nH]2)cc1` [candesartan], in data set [1], the “average of REM sleep” value stood at 7.5%, the “average of nREM sleep” value came out at 57%, the “average of wakefulness along the entire experiment” value turned out to be 35% and the sleep latency was found to be 38 ± 3 min. For the same compound, in data set [1], the “abnormal wave components in the EEG (power spectrum analysis)” value is on record as “does not induce abnormal wave components in the EEG”. For the same compound, the “nREM sleep increase compared with vehicle treated rats (depending on the hour)” value in data set [1] (candesartan 1 or 5 mg/kg i.p.) is 20-40%. Moreover, the “REM sleep (range depending on the hour)” value in data set [1] (setting [3]) is recorded as 6-12%.

`CCOc1nc2cccc(C(=O)O)c2n1Cc1ccc(-c2ccccc2-c2noc(=O)[nH]2)cc1` [azilsartan]: in data set [2], the “duration of effect compared with other AT1 receptor blockers” value is given as “longer-lasting effect than other AT1 receptor blockers”. Also, the “more sleep in the last two hours of the experiment compared to candesartan-treated rats” value in data set [1] (4 hours after injection of the drug, azilsartan 0.5 mg/kg i.p.) was 20%. For the same compound, in data set [1], the “average of REM sleep” value is reported as 10%, the “average of nREM sleep” value amounted to 68%, the “average of wakefulness along the entire experiment” value is reported as 22% and the sleep latency was found to be 60 ± 3 min. Also, the “abnormal wave components in the EEG (power spectrum analysis)” value in data set [1] was “does not seem to induce abnormal wave components in the EEG”. Further, in data set [1] (azilsartan 0.5 mg/kg i.p.), the “percentage of nREM sleep (range depending on the hour)” value is 50-82%. Moreover, the “REM sleep (range depending on the hour)” value in data set [1] (setting [3]) is 3-15%. In addition, in data set [1] (validated rat model of stress-induced insomnia), the “effect on sleep disturbances induced by stress” value is recorded as “ameliorate sleep disturbances induced by stress”.
